In US20260242343A1, “COMPOUND SERVING AS DDR1 KINASE INHIBITOR, AND MEDICINE” (NIPPON SHINYAKU CO., LTD., priority 2022, published 2026):
pIC50: −log10 of the molar value.

Assays:
DDR1 protein = target: T1, DDR1 protein (Homo sapiens, UniProt Q08345); test: Evaluation of DDR1 kinase inhibitory activity (LANCE Ultra TR-FRET); assay type: biochemical; settings: DDR1 protein 0.5 nM, ATP 100 μM, 2 hours at room temperature; read-out: DDR-1 IC50
T1 construct: purchased Carna Biosciences 08-113
Procedure: The test was performed in duplicate.

[1] = target: T2, DDR1 kinase in DDR1-expressing U2OS cells (Homo sapiens, UniProt Q08345); test: DDR1 kinase inhibitory effect in DDR1-expressing U2OS cells (PathHunter, type I collagen stimulation); assay type: cell-based; settings: type I collagen 50 μg/mL, 10% FBS, read-out: DDR-1 IC50
T2 construct: host or cells: U2OS
Procedure: Test compounds in DMSO were prepared at 10 mM and diluted with DMSO to final concentrations of 1000, 100, 10, 1, and 0.1 μM. These solutions were diluted further with E-MEM medium (Fujifilm Wako Pure Chemical Industries, 051-07615) containing 10% fetal bovine serum (FBS, Gibco, 10270106) to 60,000, 6,000, 600, 60, 6, and 0.6 nM to obtain test sample solutions.
DDR1-expressing U2OS cells (DiscoverX, 93-0894C3) suspended at 2.5×10^5 cells/mL in 10% FBS+E-MEM medium were seeded in 384-well plates (DiscoverX, 92-0013) in 20 μL portions and cultured overnight at 37° C. and 5% CO2.
The next day, the test sample solutions as prepared were added at 5 μL/well to final concentrations of 10,000, 1,000, 100, 10, 1, and 0.1 nM. After incubation at 37° C. and 5% CO2 for 1 hour, type I collagen (Nitta Gelatin, 631-00771) was added at 5 μL/well to a final concentration of 50 μg/mL, and cultured overnight at 37° C. and 5% CO2.
The next day, the plate was left at room temperature for 1 hour, after which 5 μL/well of detection solution was added according to the instruction manual for the PathHunter (registered trademark) Detection Kit (DiscoverX, 93-0001). […] The test was performed in duplicate.

T2 sequence (Q08345 19-913): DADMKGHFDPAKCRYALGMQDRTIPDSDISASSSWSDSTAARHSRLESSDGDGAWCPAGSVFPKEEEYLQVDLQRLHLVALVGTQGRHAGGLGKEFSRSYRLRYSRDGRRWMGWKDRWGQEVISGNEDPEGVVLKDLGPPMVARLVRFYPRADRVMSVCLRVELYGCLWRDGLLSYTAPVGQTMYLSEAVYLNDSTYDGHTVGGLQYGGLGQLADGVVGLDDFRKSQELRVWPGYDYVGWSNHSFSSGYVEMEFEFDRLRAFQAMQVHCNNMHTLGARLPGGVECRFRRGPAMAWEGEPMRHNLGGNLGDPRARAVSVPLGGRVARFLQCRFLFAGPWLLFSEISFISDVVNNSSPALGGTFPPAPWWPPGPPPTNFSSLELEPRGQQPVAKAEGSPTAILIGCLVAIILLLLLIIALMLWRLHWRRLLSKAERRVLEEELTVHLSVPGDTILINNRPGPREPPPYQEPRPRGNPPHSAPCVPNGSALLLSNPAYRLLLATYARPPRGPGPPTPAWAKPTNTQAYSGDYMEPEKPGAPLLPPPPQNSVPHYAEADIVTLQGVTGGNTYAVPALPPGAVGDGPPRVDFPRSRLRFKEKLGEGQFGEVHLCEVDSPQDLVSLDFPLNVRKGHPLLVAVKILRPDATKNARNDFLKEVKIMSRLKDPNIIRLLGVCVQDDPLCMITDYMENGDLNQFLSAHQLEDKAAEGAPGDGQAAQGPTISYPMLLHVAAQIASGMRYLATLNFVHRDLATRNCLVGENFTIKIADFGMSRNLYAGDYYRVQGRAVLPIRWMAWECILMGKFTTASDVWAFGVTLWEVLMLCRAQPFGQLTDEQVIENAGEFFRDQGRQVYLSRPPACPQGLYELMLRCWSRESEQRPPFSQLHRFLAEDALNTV
T1 sequence (Q08345 19-876 isoform Q08345-2 limits assumed): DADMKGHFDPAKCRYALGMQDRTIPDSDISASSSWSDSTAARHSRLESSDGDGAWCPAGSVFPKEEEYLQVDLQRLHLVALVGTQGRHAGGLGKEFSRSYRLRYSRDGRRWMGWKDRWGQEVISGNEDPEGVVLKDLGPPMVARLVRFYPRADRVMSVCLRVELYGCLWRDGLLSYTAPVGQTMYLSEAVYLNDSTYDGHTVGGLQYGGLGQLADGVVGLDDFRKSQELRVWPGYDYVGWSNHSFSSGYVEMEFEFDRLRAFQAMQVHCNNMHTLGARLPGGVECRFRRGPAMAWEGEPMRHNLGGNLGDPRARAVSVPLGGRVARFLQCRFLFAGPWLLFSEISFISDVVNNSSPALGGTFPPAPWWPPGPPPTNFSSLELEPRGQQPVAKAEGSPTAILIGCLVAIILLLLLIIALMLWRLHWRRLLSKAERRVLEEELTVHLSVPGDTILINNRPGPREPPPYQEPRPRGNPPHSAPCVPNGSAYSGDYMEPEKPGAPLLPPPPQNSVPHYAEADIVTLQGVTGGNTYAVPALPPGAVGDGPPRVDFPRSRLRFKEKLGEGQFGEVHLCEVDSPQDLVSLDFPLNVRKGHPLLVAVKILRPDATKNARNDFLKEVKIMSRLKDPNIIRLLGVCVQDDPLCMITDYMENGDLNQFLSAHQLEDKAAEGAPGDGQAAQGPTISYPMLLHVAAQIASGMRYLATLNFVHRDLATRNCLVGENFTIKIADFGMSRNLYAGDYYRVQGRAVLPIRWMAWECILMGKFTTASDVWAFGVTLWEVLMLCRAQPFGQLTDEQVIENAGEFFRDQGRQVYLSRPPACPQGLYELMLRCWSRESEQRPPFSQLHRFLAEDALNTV

SMILES	pIC50 (DDR1 protein)	pIC50 [1]
O=C(N[C@H]1C[C@H](OC(F)(F)F)C[C@@H]1O)c1ccc(OC(F)F)c(C#Cc2cncc(F)c2)c1 [Example 2, 4-(Difluoromethoxy)-3-[2-(5-fluoropyridin-3-yl)ethynyl]-N-[(1S,2S,4S)-2-hydroxy-4-(trifluoromethoxy)cyclopentyl]benzamide]	8.44	7.42
CCc1ncc(C(=O)N[C@H]2C[C@H](OC(F)(F)F)C[C@@H]2O)cc1/C=C(\F)c1cnc(N)nc1 [Example 11, 5-[(1Z)-2-(2-Aminopyrimidin-5-yl)-2-fluoroethenyl]-6-ethyl-N-[(1S,2S,4S)-2-hydroxy-4-(trifluoromethoxy)cyclopentyl]pyridine-3-carboxamide]	7.66	6.92
Nc1ncc(/C=C(\F)c2cc(C(=O)N[C@H](CO)CCOC(F)(F)F)ccc2OC(F)F)cn1 [Example 12, 3-[(1Z)-2-(2-Aminopyrimidin-5-yl)-1-fluoroethenyl]-4-(difluoromethoxy)-N-[(2S)-1-hydroxy-4-(trifluoromethoxy)butan-2-yl]benzamide]	8.96	7.85
COc1cncc(/C=C(\F)c2cc(C(=O)N[C@H]3C[C@H](OC(F)(F)F)C[C@@H]3O)cc(F)c2OC(F)F)c1 [Example 13, 4-(Difluoromethoxy)-3-fluoro-5-[(1Z)-1-fluoro-2-(5-methoxypyridin-3-yl)ethenyl]-N-[(1S,2S,4S)-2-hydroxy-4-(trifluoromethoxy)cyclopentyl]benzamide]	9.06	8.72
NC(=O)c1ncc2cc(-c3cc(C(=O)N[C@H]4C[C@H](OC(F)(F)F)C[C@@H]4O)cnc3C(F)(F)F)ccn12 [Example 15, 5-{3-Carbamoylimidazo[1,5-a]pyridin-7-yl}-N-[(1S,2S,4S)-2-hydroxy-4-(trifluoromethoxy)cyclopentyl]-6-(trifluoromethyl)pyridine-3-carboxamide]	8.66	7.85
CCc1ccc(C(=O)N[C@H]2C[C@H](OC(F)(F)F)C[C@@H]2O)cc1NC(=O)c1cnc(-c2ccccc2)o1 [Example 16, N-(2-Ethyl-5-{[(1S,2S,4S)-2-hydroxy-4-(trifluoromethoxy)cyclopentyl]carbamoyl}phenyl)-2-phenyl-1,3-oxazole-5-carboxamide]	8.12	7.89
CCc1ccc(C(=O)N[C@H]2C[C@H](OC(F)(F)F)C[C@@H]2O)cc1NC(=O)c1cnc(CC2CC2)s1 [Example 17, 2-(Cyclopropylmethyl)-N-(2-ethyl-5-{[(1S,2S,4S)-2-hydroxy-4-(trifluoromethoxy)cyclopentyl]carbamoyl}phenyl)-1,3-thiazole-5-carboxamide]	8.80	7.77
O=C(N[C@H]1CC2(CC2)C[C@@H]1O)c1ccc(OC(F)F)c(C#Cc2cncnc2)c1 [Example 18, 4-(Difluoromethoxy)-N-[(5S,6S)-6-hydroxyspiro[2.4]heptan-5-yl]-3-[2-(pyrimidin-5-yl)ethynyl]benzamide]	7.66	6.82
O=C(N[C@H]1CC2(CC2)C[C@@H]1O)c1ccc(OC(F)F)c(C#Cc2cncc(F)c2)c1 [Example 19, 4-(Difluoromethoxy)-3-[2-(5-fluoropyridin-3-yl)ethynyl]-N-[(5S,6S)-6-hydroxyspiro[2.4]heptan-5-yl]benzamide]	8.49	7.57
Nc1ncc(C#Cc2cc(C(=O)N[C@H]3CC(F)(F)CC[C@@H]3O)ccc2OC(F)F)cn1 [Example 20, 3-[2-(2-Aminopyrimidin-5-yl)ethynyl]-N-[(1S,2S)-5,5-difluoro-2-hydroxycyclohexyl]-4-(difluoromethoxy)benzamide p-toluenesulfonate]	8.51	7.80
Nc1ncc(C#Cc2cc(C(=O)N[C@H]3CC4(CC4)C[C@@H]3O)ccc2OC(F)F)cn1 [Example 21, 3-[2-(2-Aminopyrimidin-5-yl)ethynyl]-4-(difluoromethoxy)-N-[(5S,6S)-6-hydroxyspiro[2.4]heptan-5-yl]benzamide]	9.57	7.96
COc1nc(N)ncc1C#Cc1cc(C(=O)N[C@H]2CC3(CC3)C[C@@H]2O)ccc1OC(F)F [Example 23, 3-[2-(2-Amino-4-methoxypyrimidin-5-yl)ethynyl]-4-(difluoromethoxy)-N-[(5S,6S)-6-hydroxyspiro[2.4]heptan-5-yl]benzamide]	9.60	8.39
Cn1cc(C#Cc2cc(C(=O)N[C@H](CO)CCOC(F)(F)F)ccc2OC(F)F)cn1 [Example 24, 4-(Difluoromethoxy)-N-[(2S)-1-hydroxy-4-(trifluoromethoxy)butan-2-yl]-3-[2-(1-methyl-1H-pyrazol-4-yl)ethynyl]benzamide]	7.44	7.01
Nc1cnc(/C(F)=C/c2cc(C(=O)N[C@H]3CC(F)(F)CC[C@@H]3O)ccc2OC(F)F)cn1 [Example 25, 3-[(1Z)-2-(5-Aminopyrazin-2-yl)-2-fluoroethenyl]-N-[(1S,2S)-5,5-difluoro-2-hydroxycyclohexyl]-4-(difluoromethoxy)benzamide]	8.77	7.72
Nc1cnc(/C(F)=C/c2cc(C(=O)N[C@H]3CC4(CC4)C[C@@H]3O)ccc2OC(F)F)cn1 [Example 26, 3-[(1Z)-2-(5-Aminopyrazin-2-yl)-2-fluoroethenyl]-4-(difluoromethoxy)-N-[(5S,6S)-6-hydroxyspiro[2.4]heptan-5-yl]benzamide]	8.29	7.70
NC(=O)c1ncc2cc(-c3cc(C(=O)N[C@H]4CC(F)(F)CC[C@@H]4O)ccc3C(F)(F)F)ccn12 [Example 27, 7-(5-{[(1S,2S)-5,5-Difluoro-2-hydroxycyclohexyl]carbamoyl}-2-(trifluoromethyl)phenyl)imidazo[1,5-a]pyridine-3-carboxamide]	8.40	8.00
NC(=O)c1ncc2cc(-c3cc(C(=O)N[C@H]4CC5(CC5)C[C@@H]4O)ccc3C(F)(F)F)ccn12 [Example 28, 7-(5-{[(5S,6S)-6-Hydroxyspiro[2.4]heptan-5-yl]carbamoyl}-2-(trifluoromethyl)phenyl)imidazo[1,5-a]pyridine-3-carboxamide]	9.07	8.11
NC(=O)c1ncc2cc(-c3cc(C(=O)N[C@H]4C[C@H](OC(F)(F)F)C[C@@H]4O)ccc3C(F)(F)F)ccn12 [Example 29, 7-(5-{[(1S,2S,4S)-2-Hydroxy-4-(trifluoromethoxy)cyclopentyl]carbamoyl}-2-(trifluoromethyl)phenyl)imidazo[1,5-a]pyridine-3-carboxamide]	9.09	8.51
NC(=O)c1ncc2cc(-c3cc(C(=O)N[C@H](CO)CCOC(F)(F)F)cnc3C(F)(F)F)ccn12 [Example 30, 5-{3-Carbamoylimidazo[1,5-a]pyridin-7-yl}-N-[(2S)-1-hydroxy-4-(trifluoromethoxy)butan-2-yl]-6-(trifluoromethyl)pyridine-3-carboxamide]	7.74	7.11
NC(=O)c1ncc2cc(-c3cc(C(=O)N[C@H](CO)CCOC(F)(F)F)ccc3C(F)(F)F)ccn12 [Example 31, 7-(5-{[(2S)-1-Hydroxy-4-(trifluoromethoxy)butan-2-yl]carbamoyl}-2-(trifluoromethyl)phenyl)imidazo[1,5-a]pyridine-3-carboxamide]	8.66	8.28
